Read-outs that look alike come from different tables or passages of the source.
Key:
PTP1B = biological target: T1, PTP1B (Homo sapiens, UniProt P18031); experiment: Inhibition of human recombinant tyrosine phosphatase PTP1B (DiFMUP fluorescence); assay type: biochemical; conditions: for Inhibition of PTP1B, percentage of inhibition of the control: 1 µM, control solvent only, SD did not exceed 6%
T1 construct: purchased Sigma-Aldrich
T1 sequence (P18031 1-435): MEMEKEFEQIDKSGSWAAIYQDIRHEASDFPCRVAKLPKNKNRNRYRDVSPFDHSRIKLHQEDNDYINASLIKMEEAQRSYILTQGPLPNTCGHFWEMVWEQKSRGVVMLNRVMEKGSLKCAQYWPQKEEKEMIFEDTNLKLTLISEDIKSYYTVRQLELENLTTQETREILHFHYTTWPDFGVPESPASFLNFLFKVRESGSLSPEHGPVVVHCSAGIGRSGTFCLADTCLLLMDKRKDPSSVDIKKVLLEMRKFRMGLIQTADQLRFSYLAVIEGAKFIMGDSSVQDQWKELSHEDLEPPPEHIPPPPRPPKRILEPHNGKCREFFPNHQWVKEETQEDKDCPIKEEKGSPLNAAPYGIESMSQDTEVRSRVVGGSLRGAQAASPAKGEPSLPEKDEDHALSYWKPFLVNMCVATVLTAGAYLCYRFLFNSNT
Procedure: (§1) To determine the ability of the tested compounds for inhibition tyrosine phosphatases, human recombinant proteins were used (Sigma-Aldrich). The reactions were performed in black opaque 384-well microplates (PerkinElmer, Waltham, MA, USA). An equal volume of phosphatase solution in a reaction buffer (25 mM of 3-(N-morpholino)propanesulfonic acid (MOPS), 50 mM NaCl, 1 mM dithiothreitol (DTT), and 0.05% Tween-20 (pH 7.0)) was added to the solution of the tested compound on microplate. These solutions were dispensed using an automated injector. The following final concentrations of the tested phosphatases were used: PTP1B 50 ng/mL, SHP1 400 ng/mL, SHP2 50 ng/mL, LAR 5 ng/mL, and PTPRA 100 ng/mL. After 10 min, a solution of phosphate 6,8-difluoro-4-methyl (DiFMUP; Thermo Fisher Scientific) was added until its final concentration was 0.1 mM. Samples were incubated for 20 miN at 23 °C, and then the measurements of fluorescence intensity (excitation 355 and emission […]) were performed on a multifunctional plate reader POLARstar Omega (BMG Labtech, Ortenberg, Germany). Assays were performed in triplicate. For the screening assays, the final concentration of the tested compounds was 1 µM. The results were expressed as percent inhibition of untreated control (enzyme with vehicle only) for the screening tests. […] IC50 were calculated using GraphPad Prism version 6.0 software (GraphPad Software, Boston, MA, USA).

LAR = biological target: T2, LAR (Homo sapiens, UniProt P10586); experiment: Inhibition of human recombinant tyrosine phosphatase LAR (DiFMUP fluorescence); assay type: biochemical; conditions: for Inhibition of LAR, percentage of inhibition of the control: 1 µM, control solvent only, SD did not exceed 6%
T2 sequence (P10586 1352-1607 limits assumed): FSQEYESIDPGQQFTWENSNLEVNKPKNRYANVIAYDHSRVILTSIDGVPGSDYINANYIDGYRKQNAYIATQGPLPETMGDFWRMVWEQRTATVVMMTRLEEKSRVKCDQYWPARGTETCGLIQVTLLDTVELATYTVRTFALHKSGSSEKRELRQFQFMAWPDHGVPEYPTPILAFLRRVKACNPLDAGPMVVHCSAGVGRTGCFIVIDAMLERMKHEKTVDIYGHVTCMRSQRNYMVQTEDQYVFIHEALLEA
Procedure: as §1

SHP1 = biological target: T3, SHP1 (Homo sapiens, UniProt P29350); experiment: Inhibition of human recombinant tyrosine phosphatase SHP1 (DiFMUP fluorescence); assay type: biochemical; conditions: for Inhibition of SHP1, percentage of inhibition of the control: 1 µM, control solvent only, SD did not exceed 6%
T3 construct: purchased Sigma-Aldrich
Procedure: as §1

SHP2 = biological target: T4, SHP2 (Homo sapiens, UniProt Q06124); experiment: Inhibition of human recombinant tyrosine phosphatase SHP2 (DiFMUP fluorescence); assay type: biochemical; conditions: for Inhibition of SHP2, percentage of inhibition of the control: 1 µM, control solvent only, SD did not exceed 6%
T4 construct: purchased Sigma-Aldrich
T4 sequence (Q06124 1-593): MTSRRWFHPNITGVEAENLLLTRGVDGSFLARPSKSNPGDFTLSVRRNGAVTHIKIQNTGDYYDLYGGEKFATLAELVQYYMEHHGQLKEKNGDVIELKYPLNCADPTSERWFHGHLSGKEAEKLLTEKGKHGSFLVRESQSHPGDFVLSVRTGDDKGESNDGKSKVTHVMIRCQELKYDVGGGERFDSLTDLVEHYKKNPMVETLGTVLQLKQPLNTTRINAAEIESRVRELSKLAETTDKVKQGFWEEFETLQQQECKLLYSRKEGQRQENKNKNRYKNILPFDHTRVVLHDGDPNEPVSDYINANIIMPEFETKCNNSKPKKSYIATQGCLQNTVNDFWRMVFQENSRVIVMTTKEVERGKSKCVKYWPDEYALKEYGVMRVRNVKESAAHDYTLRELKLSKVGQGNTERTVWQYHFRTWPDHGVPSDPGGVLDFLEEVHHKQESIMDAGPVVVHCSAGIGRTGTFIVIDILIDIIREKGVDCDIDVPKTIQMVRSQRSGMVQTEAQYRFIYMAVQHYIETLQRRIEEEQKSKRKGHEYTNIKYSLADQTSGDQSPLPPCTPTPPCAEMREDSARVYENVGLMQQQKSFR
Procedure: as §1

CDC25A = biological target: T5, CDC25A (Homo sapiens, UniProt P30304); experiment: Inhibition of human recombinant non-tyrosine phosphatase CDC25A (3-O-methylfluorescein phosphate); assay type: biochemical
T5 construct: purchased Sigma-Aldrich
T5 sequence (P30304 1-524): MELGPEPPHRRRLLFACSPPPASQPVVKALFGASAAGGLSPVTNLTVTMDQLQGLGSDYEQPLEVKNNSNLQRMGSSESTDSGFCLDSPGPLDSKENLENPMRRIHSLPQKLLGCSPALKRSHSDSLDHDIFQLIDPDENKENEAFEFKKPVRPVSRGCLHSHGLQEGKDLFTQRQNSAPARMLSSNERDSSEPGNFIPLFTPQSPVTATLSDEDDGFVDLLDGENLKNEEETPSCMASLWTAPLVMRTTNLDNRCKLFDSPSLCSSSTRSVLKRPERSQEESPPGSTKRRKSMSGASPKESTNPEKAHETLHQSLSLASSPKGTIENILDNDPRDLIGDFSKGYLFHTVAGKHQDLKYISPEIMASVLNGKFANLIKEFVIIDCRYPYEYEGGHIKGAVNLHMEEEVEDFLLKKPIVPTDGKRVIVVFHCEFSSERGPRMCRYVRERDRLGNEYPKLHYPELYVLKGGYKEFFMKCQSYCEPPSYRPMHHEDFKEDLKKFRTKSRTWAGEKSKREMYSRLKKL
Procedure: (§2) For the inhibition assay of non-tyrosine phosphatases, human recombinant proteins were used (Sigma-Aldrich). The reactions were performed in black opaque 384-well microplates (PerkinElmer). To the solution of the tested complexes, an equal volume of a test solution of phosphatase was added. CDC25A were diluted in reaction buffer to the final concentration of 400 ng/mL as for tyrosine phosphatases (described in the section above), and PPA2 (final 0.5 U/mL) was diluted in 50 mM Tris-HCl, 0.05% Tween-20, and 125 µg/mL protease-free bovine serum albumin (pH 7.0). These solutions were dispensed using an automated injector. After 10 min, a solution of phosphate 6,8-difluoro-4-methyl (DiFMUP; Thermo Fisher Scientific) was added for the PPA2 sample until the final concentration 0.1 mM. For CDC25A samples, 3-O-methylfluorescein phosphate for the final concentration of 0.2 mM was added. Samples were incubated for 180 min at 23 °C, and then the measurements of fluorescence intensity (excitation 355 and emission 560 nm) were performed on a multifunctional plate reader POLARstar Omega (BMG Labtech). Assays were performed in triplicate. The results were expressed as percent of inhibition of untreated control (enzyme with vehicle solvent only).

PP2A = PP2A (Homo sapiens, UniProt P67775); experiment: Inhibition of human recombinant non-tyrosine phosphatase PP2A (DiFMUP); assay type: biochemical
Procedure: as §2

myocytes C2C12 [1] = experiment: Viability of myocytes C2C12 after 24 h incubation (resazurin-based reagent); conditions: 50 µM
Procedure: Simultaneously with glucose consumption tests, the viability of myocytes C2C12 was examined due to their prolonged 24 h incubation with vanadium complexes.
Prolonged incubation of the cells with vanadium complexes, as was the case during the study of the effect on glucose consumption, more closely corresponds to the actual conditions of clinical use, also allowing for the identification of possible cytotoxic effects. […] A Resazurin-based reagent is reduced proportionally to the metabolic activity of cells as a result of the transference of electrons from NADPH+H^+, the amount of which strictly depends on glucose metabolism.

myocytes C2C12 [2] = experiment: Scintillation proximity assay, transport of [14C]-deoxy-D-glucose into myocytes C2C12; assay type: cell-based, mouse; conditions: 50 µM; control solvent only
Procedure: The myocyte C2C12 cell line (ATCC CRL-1772), a subclone of myoblasts from mouse muscles, was cultured according to standard protocol in DMEM supplemented with 10% fetal calf serum, 100 IU/ml penicillin, and […] streptomycin at 37 °C in 5% CO2. Cells were pleated on a 96-well microplate and after reach confluence were differentiated in medium with 2% horse serum. Differentiation medium was changed every 72 h.
(§3) Scintillation proximity assay (SPA) is a method to measure the real-time accumulation of radiolabeled substrates by adherent cells with no filtration needed. Radioactivity concentrated closer to the scintillator embedded in the plastic bottom of each well provides a stronger signal than the radiolabeled substrate in the culture medium. Uptake of radiolabeled 2-deoxy-D-[U-14C]-glucose was conducted based on previous descriptions.
After 24 h incubation, the tested complexes were added. After 2 h incubation at 37 °C in 5% CO2, the medium was changed to low-glucose medium (1000 mg/L), and the tested complexes were added again, with further incubation for 4 h being conducted.
(§4) For cells proceeded as above, 2-deoxy-D-[U-14C]-glucose (250–350 mCi/mmol, NEC720A, PerkinElmer) solution in KRB with a total activity of 0.03 mCi was added to each well. […] Non-specific radioactivity was subtracted from each result (cpm). Two independent experiments with triplicates were conducted.

adipocytes 3T3-L1 = experiment: Scintillation proximity assay, transport of [14C]-deoxy-D-glucose into adipocytes 3T3-L1; assay type: cell-based, mouse; conditions: 50 µM
Procedure: Adipocytes 3T3-L1 cell line (ATCC CRL-11605) derived from fibroblasts from mouse embryo tissue were cultured according to standard protocol in DMEM medium supplemented with 10% bovine calf serum, 100 IU/mL penicillin, and […] streptomycin at 37 °C in 5% CO2. Cells were seeded in 96-well poly-D-lysine-coated plates and cultured to reach confluency.
as §3
Adipocytes were washed and the medium was changed to the basal medium. After 24 h incubation, the tested complexes were added. After 2 h incubation at 37 °C in 5% CO2, the medium was changed to DMEM medium without glucose, with 0.1% BSA free from fatty acid, […] L-glutamine, and […] pyruvate. The tested complexes were added again, and further incubation for 4 h was conducted.
as §4

T3 sequence (P29350 whole entry): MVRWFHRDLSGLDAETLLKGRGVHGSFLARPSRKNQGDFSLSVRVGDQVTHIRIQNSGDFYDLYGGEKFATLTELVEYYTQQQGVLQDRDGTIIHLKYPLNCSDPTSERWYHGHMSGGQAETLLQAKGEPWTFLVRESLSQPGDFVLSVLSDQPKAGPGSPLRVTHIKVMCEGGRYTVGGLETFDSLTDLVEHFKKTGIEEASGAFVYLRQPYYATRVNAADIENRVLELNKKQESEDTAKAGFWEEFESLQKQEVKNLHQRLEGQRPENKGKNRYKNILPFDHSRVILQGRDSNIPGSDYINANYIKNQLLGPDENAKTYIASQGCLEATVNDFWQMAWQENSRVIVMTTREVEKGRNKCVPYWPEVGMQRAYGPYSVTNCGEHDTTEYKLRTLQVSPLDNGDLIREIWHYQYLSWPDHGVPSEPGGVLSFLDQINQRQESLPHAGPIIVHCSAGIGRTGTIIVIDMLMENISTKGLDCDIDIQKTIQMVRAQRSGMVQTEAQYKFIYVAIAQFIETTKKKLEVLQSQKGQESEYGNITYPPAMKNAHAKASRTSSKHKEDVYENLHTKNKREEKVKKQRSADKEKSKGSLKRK
Sequence of PP2A (P67775 whole entry): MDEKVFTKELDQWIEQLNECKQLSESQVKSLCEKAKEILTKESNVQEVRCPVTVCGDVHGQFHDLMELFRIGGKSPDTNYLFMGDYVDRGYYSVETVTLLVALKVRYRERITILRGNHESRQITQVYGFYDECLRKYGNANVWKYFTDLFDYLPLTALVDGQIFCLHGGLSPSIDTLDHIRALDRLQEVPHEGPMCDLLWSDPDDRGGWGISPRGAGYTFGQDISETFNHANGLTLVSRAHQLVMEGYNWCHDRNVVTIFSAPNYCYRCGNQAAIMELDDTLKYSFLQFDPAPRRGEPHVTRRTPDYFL

SMILES: CC(CC(=S)Nc1ccccc1)=NC(Cc1ccccc1)C(=O)[O][V](=[O])([Cl])[Cl] (stereo not shown) [VC059, [VOCl2(L2)]·0.5Et2O·1.5HCl]
- Inhibition of PTP1B, percentage of inhibition of the control (PTP1B): 79%
- Log IC50 ± SD PTP1B (PTP1B; logarithm of IC50): −6.97 ± 0.01
- IC50 (PTP1B; read-out: IC50 PTP1B): 107 nM
- IC50 (PTP1B; read-out: IC50 for PTP1B): 110 nM
- IC50 (LAR): 76 nM
- Inhibition of LAR, percentage of inhibition of the control (LAR): 71%
- IC50 (SHP1): 26 nM
- Inhibition of SHP1, percentage of inhibition of the control (SHP1): 82%
- Log IC50 ± SD SHP1 (SHP1; logarithm of IC50): −7.59 ± 0.04
- IC50 (SHP2): 13 nM
- Inhibition of SHP2, percentage of inhibition of the control (SHP2): 87%
- Inhibition of CDC25A, percentage inhibition of control ± SD (CDC25A; 1 µM): 55 ± 3%
- Inhibition of CDC25A, percentage inhibition of control ± SD (CDC25A; 10 µM): 68 ± 3%
- Inhibition of PP2A, percentage inhibition of control ± SD (PP2A; 1 µM): 44 ± 1%
- Inhibition of PP2A, percentage inhibition of control ± SD (PP2A; 10 µM): 54 ± 9%
- Cell viability of myocytes C2C12, % of the control (myocytes C2C12 [1]): 86 ± 6%

SMILES: CC(CC(=S)Nc1ccccc1)=NC(CC(C)C)C(=O)[O][V](=[O])([Cl])[Cl] (stereo not shown) [VC070, [VOCl2(L3)]·0.5Et2O·3HCl]
- Inhibition of PTP1B, percentage of inhibition of the control (PTP1B): 79%
- Inhibition of LAR, percentage of inhibition of the control (LAR): 69%
- Inhibition of SHP1, percentage of inhibition of the control (SHP1): 84%
- Inhibition of SHP2, percentage of inhibition of the control (SHP2): 88%
- Transport of [14C]-deoxy-D-glucose into C2C12 myocytes, % of the control (myocytes C2C12 [2]): 158 ± 10 % of control
- Transport of [14C]-deoxy-D-glucose into 3T3-L1 adipocytes, % of control (adipocytes 3T3-L1): 159 % of control

Reference: publication PMC10892041, “Vanadium Complexes with Thioanilide Derivatives of Amino Acids: Inhibition of Human Phosphatases and Specificity in Various Cell Models of Metabolic Disturbances” (Pharmaceuticals, 2024)
